Source: ChEMBL document CHEMBL5537205, “Discovery of D25, a Potent and Selective MNK Inhibitor for Sepsis-Associated Acute Spleen Injury” (J Med Chem, 2024)
Calls of active or inactive are those of the source. No cut-off for these calls is given here.

Columns and labels:
RAW264.7 = experiment: Antiinflammatory activity in LPS-induced mouse RAW264.7 cells assessed as increase in Arg1 protein expression by Western blot analysis; format: functional, cell-based; details: dose <= 20.0 µM
[1] = Toxicity in BALB/c mouse assessed as change in body weight at 10 to 20 mg/kg, po administered for 14 days; format: organism-based; details: in vivo, 336 h, dose 10-20 mg/kg, time 14 day
Mus musculus [2] = experiment: Antiinflammatory activity in LPS-induced BALB/c sepsis mouse model assessed as decrease in cell gap in spleen at 10 to 20 mg/kg, po preadministered with compound for 14 days followed by LPS stimulation and measured after 6 hrs by H&E staining based analysis; format: functional, organism-based; details: dose 10-20 mg/kg, time 342.0 hrs
Mus musculus [3] = experiment: Antiinflammatory activity in LPS-induced BALB/c sepsis mouse model assessed as decrease in MDA level in serum at 20 mg/kg, po preadministered with compound for 14 days followed by LPS stimulation and measured after 6 hrs; format: functional, organism-based; details: time 342.0 hrs
Mus musculus [4] = experiment: Antiinflammatory activity in LPS-induced BALB/c sepsis mouse model assessed as reversal of LPS-induced lung […] index at 20 mg/kg, po preadministered with compound for 14 days followed by LPS stimulation and measured after 6 hrs; format: functional, organism-based; details: time 342.0 hrs
[5] = target: MAP kinase-interacting serine/threonine-protein kinase 2 (Homo sapiens, UniProt Q9HBH9); experiment: Inhibition of MNK2 (unknown origin) at 1 uM relative to control
Chain of MAP kinase-interacting serine/threonine-protein kinase 2 (Q9HBH9 whole entry, looked up): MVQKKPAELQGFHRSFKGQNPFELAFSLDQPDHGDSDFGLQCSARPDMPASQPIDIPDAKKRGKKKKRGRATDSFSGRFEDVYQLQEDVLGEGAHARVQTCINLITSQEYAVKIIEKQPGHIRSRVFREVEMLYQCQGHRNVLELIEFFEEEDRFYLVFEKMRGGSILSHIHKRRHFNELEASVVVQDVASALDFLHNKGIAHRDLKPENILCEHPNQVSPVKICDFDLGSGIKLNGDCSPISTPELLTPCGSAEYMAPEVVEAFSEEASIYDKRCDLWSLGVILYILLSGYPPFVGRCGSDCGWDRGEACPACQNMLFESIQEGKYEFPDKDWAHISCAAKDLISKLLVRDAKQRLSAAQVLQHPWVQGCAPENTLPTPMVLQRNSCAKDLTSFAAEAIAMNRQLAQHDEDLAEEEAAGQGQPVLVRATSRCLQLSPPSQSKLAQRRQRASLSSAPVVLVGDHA

Mus musculus [6] = experiment: Antiinflammatory activity in LPS-induced BALB/c sepsis mouse model assessed as decrease in serum TNF-alpha level at 20 mg/kg, po preadministered with compound for 14 days followed by LPS stimulation and measured after 6 hrs by ELISA; format: functional, organism-based; details: time 342.0 hrs
[7] = Half-life in Sprague-Dawley rat at 20 mg/kg, po measured after 48 hrs; format: ADME, organism-based; details: in vivo
[8] = AUC (0 to t) in Sprague-Dawley rat at 5 mg/kg, iv measured after 48 hrs; format: ADME, organism-based; details: in vivo
Mus musculus [9] = experiment: Antiinflammatory activity in LPS-induced BALB/c sepsis mouse model assessed as decrease in volume of spleen nucleus at 10 to 20 mg/kg, po preadministered with compound for 14 days followed by LPS stimulation and measured after 6 hrs by H&E staining based analysis; format: functional, organism-based; details: dose 10-20 mg/kg, time 342.0 hrs
Mus musculus [10] = experiment: Antiinflammatory activity in LPS-induced BALB/c sepsis mouse model assessed as increase in SOD level in serum at 20 mg/kg, po preadministered with compound for 14 days followed by LPS stimulation and measured after 6 hrs; format: functional, organism-based; details: time 342.0 hrs
Mus musculus [11] = experiment: Antiinflammatory activity in LPS-induced BALB/c sepsis mouse model assessed as decrease in phosphorylated eIF4E level in spleen at 10 to 20 mg/kg, po preadministered with compound for 14 days followed by LPS stimulation and measured after 6 hrs by Western blot analysis; format: functional, organism-based; details: dose 10-20 mg/kg, time 342.0 hrs
Mus musculus [12] = experiment: Antiinflammatory activity in LPS-induced BALB/c sepsis mouse model assessed as decrease in COX-2 level in spleen at 10 to 20 mg/kg, po preadministered with compound for 14 days followed by LPS stimulation and measured after 6 hrs by Western blot analysis; format: functional, organism-based; details: dose 10-20 mg/kg, time 342.0 hrs

inhibition [5]: 85.8%
half-life [7]: 200 min
AUCt [8]: 1618 ng·h/mL
SMILES: c1cc(-c2cc(C3CCNCC3)n[nH]2)c2cc[nH]c2n1
Activity (RAW264.7): Dose-Dependent Effect
Activity [1]: Non-Toxic
Activity (Mus musculus [2]): Active
Activity (Mus musculus [3]): Active
Activity (Mus musculus [4]): Active
Activity (Mus musculus [6]): Active
Activity (Mus musculus [9]): Active
Activity (Mus musculus [10]): Active
Activity (Mus musculus [11]): Active
Activity (Mus musculus [12]): Active
